The numbers were not newly measured in publication PMC10459069, “Comparative Serum and Brain Pharmacokinetics of Quercetin after Oral and Nasal Administration to Rats as Lyophilized Complexes with β-Cyclodextrin Derivatives and Their Blends with Mannitol/Lecithin Microparticles” (Pharmaceutics, 2023), which cites them from elsewhere.

Structures are written as SMILES.

Details of series [1]: method as in PMID 19720149. The settings on record: mice, 6-week treatment with Que-enriched diets (2 mg/g diet).
The conditions of series [2]: rats.
For series [3] the following is noted: reference not given.

For the compound `O=c1c(O)c(-c2ccc(O)c(O)c2)oc2cc(O)cc(O)c12` [Que, Quercetin], in series [1], the brain levels is 0.085 µg/g. In addition, the Cmax/dose ratio in series [2] (intragastric administration of 100 mg/kg of pure Que, ref Yang et al. (2016) 46) is given as 0.03. In addition, the “levels in the brain” value in series [2] (single oral administration of Que) is “did not reveal measurable levels”.
Consider `OC[C@@H](O)[C@@H](O)[C@H](O)[C@H](O)CO` [mannitol, Mannitol], for which, in series [3], the logP was −3.4.

As usually defined, the logP is a log measure of how a compound divides between an organic and an aqueous phase.
